Measured values published in US9518061B2, “Substituted pyrazolylpyrazole derivative and use of same as herbicide” (KYOYU AGRI CO., LTD., priority 2013, dated 2016).

Tests used:
[1] = test system: Rice plants; test: Paddy herbicidal activity test, phytotoxicity to transplanted rice; type: in vivo; settings: rice transplanted in 2.0 leaf stage, 30 days
Procedure, shortened: (§1)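 Flooded paddy-soil pots (3 cm water) seeded with weeds; rice at 2.0-leaf stage transplanted when Echinochloa reached 3.5-leaf stage, then diluted wettable powder dropped in at set rate per are. After 30 days in greenhouse (avg 30° C), growth inhibition (%) scored on 11-level scale vs untreated (efficacy) or complete-kill group (phytotoxicity).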

[2] = test system: Digitaria ciliaris; test: Farming soil treatment test; type: in vivo; settings: soil surface spray prior to weed growth, 30 days
Description: (§2) 2. Farming Soil Treatment Test
(§3) Field soil was filled into a 1/6000 are pot followed by seeding with Digitaria ciliaris, Chenopodium album and Amaranthus retroflexus and covering with soil.
(§4) Wettable powder of compounds of formula (D shown in Table 1 prepared in compliance with the preparation examples were diluted with water to the prescribed amount of chemical and uniformly sprayed onto each soil surface layer using 10 liters of sprayed water per are prior to weed growth following seeding.
(§5) After treating for 30 days in a glass greenhouse at an average atmospheric temperature of 30° C., the herbicidal efficacy thereof was investigated.
(§6) Evaluation of herbicidal efficacy was carried out in the same manner as the above-mentioned Test Example 1.

[3] = test system: Amaranthus retroflexus; test: Farming soil treatment test; type: in vivo; settings: soil surface spray prior to weed growth, 30 days
Description: as §2, §3, §4, §5, §6

[4] = test system: Chenopodium album; test: Farming soil treatment test; type: in vivo; settings: soil surface spray prior to weed growth, 30 days
Description: as §2, §3, §4, §5, §6

[5] = test system: Monochoria vaginalis; test: Paddy herbicidal activity test; type: in vivo; settings: irrigated paddy pot, 30 days
Procedure, shortened: as §1

[6] = test system: Echinochloa crus-galli; test: Paddy herbicidal activity test; type: in vivo; settings: irrigated paddy pot, treated at 3.5 leaf stage of Echinochloa crus-galli, 30 days
Procedure, shortened: as §1

[7] = test system: Scirpus juncoides; test: Paddy herbicidal activity test; type: in vivo; settings: irrigated paddy pot, 30 days
Procedure, shortened: as §1

[8] = test system: Digitaria ciliaris; test: Weed foliar treatment test; type: in vivo; settings: foliar spray at 1.0 to 2.0 leaf stage of Digitaria ciliaris, 3 weeks
Description: (§7) 3. Weed Foliar Treatment Test
(§8) Soil was filled into a 1/6000 are pot followed by seeding with Digitaria ciliaris, Chenopodium album and Amaranthus retroflexus, covering with soil, and cultivating in a glass greenhouse at an average atmospheric temperature of 25° C.
(§9) Wettable powder of Target Compound (I) shown in Table 1 prepared in compliance with the preparation examples were diluted with water to the prescribed amount of chemical and uniformly sprayed onto the weeds using 15 liters of sprayed water per are when Digitaria ciliaris had grown to the 1.0 to 2.0 leaf stage.
(§10) After treating for 3 weeks in a glass greenhouse at an average atmospheric temperature of 25° C., the herbicidal efficacy thereof was investigated.
as §6

[9] = test system: Amaranthus retroflexus; test: Weed foliar treatment test; type: in vivo; settings: foliar spray, 3 weeks
Description: as §7, §8, §9, §10, §6

[10] = test system: Chenopodium album; test: Weed foliar treatment test; type: in vivo; settings: foliar spray, 3 weeks
Description: as §7, §8, §9, §10, §6

Row | SMILES | phytotoxicity (growth inhibition rate level) Rice plants ([1]; 1g a.i./10a) | phytotoxicity (growth inhibition rate level) Rice plants ([1]; 5g a.i./10a) | herbicidal efficacy (growth inhibition rate level) Digitaria ciliaris ([2]; 5g a.i./10a) | herbicidal efficacy (growth inhibition rate level) Digitaria ciliaris ([2]; 10g a.i./10a) | herbicidal efficacy (growth inhibition rate level) Amaranthus retroflexus ([3]; 5g a.i./10a) | herbicidal efficacy (growth inhibition rate level) Amaranthus retroflexus ([3]; 10g a.i./10a) | herbicidal efficacy (growth inhibition rate level) Chenopodium album ([4]; 5g a.i./10a) | herbicidal efficacy (growth inhibition rate level) Chenopodium album ([4]; 10g a.i./10a) | herbicidal efficacy (growth inhibition rate level) Monochoria vaginalis ([5]; 1g a.i./10a) | herbicidal efficacy (growth inhibition rate level) Monochoria vaginalis ([5]; 5g a.i./10a) | herbicidal efficacy (growth inhibition rate level) Echinochloa crus-galli ([6]; 1g a.i./10a) | herbicidal efficacy (growth inhibition rate level) Echinochloa crus-galli ([6]; 5g a.i./10a) | herbicidal efficacy (growth inhibition rate level) Scirpus juncoides ([7]; 1g a.i./10a) | herbicidal efficacy (growth inhibition rate level) Scirpus juncoides ([7]; 5g a.i./10a) | herbicidal efficacy (growth inhibition rate level) Digitaria ciliaris ([8]; 5g a.i./10a) | herbicidal efficacy (growth inhibition rate level) Digitaria ciliaris ([8]; 10g a.i./10a) | herbicidal efficacy (growth inhibition rate level) Amaranthus retroflexus ([9]; 5g a.i./10a) | herbicidal efficacy (growth inhibition rate level) Amaranthus retroflexus ([9]; 10g a.i./10a) | herbicidal efficacy (growth inhibition rate level) Chenopodium album ([10]; 5g a.i./10a) | herbicidal efficacy (growth inhibition rate level) Chenopodium album ([10]; 10g a.i./10a) | also measured
1 | COCCN(C(=O)C(F)(F)F)c1c(C#N)cnn1-c1nn2c(c1Cl)CCCC2 [Compound 2, N-(1-(3-chloro-4,5,6,7-tetrahydropyrazolo[1,5-a]pyridin-2-yl)-4-cyanopyrazol-5-yl)-N-(2-methoxyethyl)-2,2,2-trifluoroacetamide] | 0 (0 (exponent): 0% to less than 10% (growth inhibition rate)) | 1 (10% to less than 20%) | 10 (100%) | 10 (100%) | 10 (100%) | 10 (100%) | 10 (100%) | 10 (100%) | 8 (80% to less than 90%) | 9 (90% to less than 100%) | 9 (90% to less than 100%) | 9 (90% to less than 100%) | 9 (90% to less than 100%) | 9 (90% to less than 100%) | 10 (100%) | 10 (100%) | 10 (100%) | 10 (100%) | 10 (100%) | 10 (100%) | melting point: 102 to 103 °C
2 | N#Cc1cnn(-c2nn3c(c2Cl)CCCC3)c1N(CCCl)C(=O)C(F)(F)F [Compound 1, N-(2-chloroethyl)-N-(1-(3-chloro-4,5,6,7-tetrahydropyrazolo[1,5-a]pyridin-2-yl)-4-cyanopyrazol-5-yl)-2,2,2-trifluoroacetamide] | 0 (0 (exponent): 0% to less than 10% (growth inhibition rate)) | 1 (10% to less than 20%) | 10 (100%) | 10 (100%) | 10 (100%) | 10 (100%) | 10 (100%) | 10 (100%) | 8 (80% to less than 90%) | 9 (90% to less than 100%) | 9 (90% to less than 100%) | 10 (100%) | 9 (90% to less than 100%) | 10 (100%) | 10 (100%) | 10 (100%) | 10 (100%) | 10 (100%) | 10 (100%) | 10 (100%) | melting point: 87 to 89 °C
3 | CCN(C(=O)C(F)(F)F)c1c(C#N)cnn1-c1nn2c(c1Cl)CCCC2 [Control agent 4.238] | 2 (20% to less than 30%) | 2 (20% to less than 30%) | 5 (50% to less than 60%) | 6 (60% to less than 70%) | 4 (40% to less than 50%) | 5 (50% to less than 60%) | 4 (40% to less than 50%) | 5 (50% to less than 60%) | 0 (0 (exponent): 0% to less than 10% (growth inhibition rate)) | 1 (10% to less than 20%) | 2 (20% to less than 30%) | 4 (40% to less than 50%) | 2 (20% to less than 30%) | 3 (30% to less than 40%) | 4 (40% to less than 50%) | 5 (50% to less than 60%) | 5 (50% to less than 60%) | 6 (60% to less than 70%) | 4 (40% to less than 50%) | 6 (60% to less than 70%) | –
